# Laboratory results: patent US6664267B1, “Crystalline fluoroquinolone arginine salt form” (Wockhardt Limited, priority 2002, dated 2003)
# Where “and” joins values, the source holds several entries; their conditions need not be identical. Identical values can stand only once. Counter-ions that a name gives are not always drawn. Like-named read-outs stand apart in the source and are kept apart here.
# Legend:
# rodents = details: in vivo
# [1] = test system: high density bacterial inoculum; assay: cidal effect with high density bacterial inoculum; type: cell-based; details: high density bacterial inoculum (10^8 cfu/ml)
# rats = details: rat, in vivo, iv
# [2] = test system: slow-growing Staphylococci; assay: cidal action against slow-growing Staphylococci; type: cell-based
# [3] = antibacterial minimum inhibitory concentration (MIC); type: cell-based
# [4] = mean mass diameter determination by laser diffraction; type: physicochemical; details: for Mean mass diameter: laser diffraction, four different samples made by the procedure of example 1, Hydrate
# Text: For mean mass diameter Master Sizer of Malvern Instrument LTD U.K. was used under the conditions listed below:
# Analysis model: Polydisperse
# Obstruction value: 20-23%
# [5] = in vivo
# Staphylococci = assay: eradication of Staphylococci from vital organs and thigh muscle; type: in vivo; details: compared with the standard drugs
# dissolution rate = type: physicochemical
# resistant mutants = assay: treating resistant mutants
# [6] = bulk density determination; type: physicochemical
# Text: Untapped density=25 g/untapped volume.
# Tapped density=25 g/Tapped volume.
# respiratory pathogens = assay: treating respiratory pathogens
# [7] = test system: resistant Staphylococcus aureus
# [8] = hygroscopicity / moisture uptake on exposure to humidity, determined gravimetrically; type: physicochemical
# [9] = exposure at a relative humidity of 41%
compound,measurement,setting,value
"CC1CCc2c(N3CCC(O)CC3)c(F)cc3c(=O)c(C(=O)O)cn1c23.N=C(N)NCCC[C@H](N)C(=O)O (racemic) [Example 8, RS-(±)-9-Fluoro-6,7-dihydro-8-(4-hydroxypiperidin-1-yl)-5-methyl-1-oxo-1H,5H-benzo[i,j]quinolizine-2-carboxylic Acid L-Arginine Salt]",antimicrobial activity,antimicrobial activity,have antimicrobial activity
"CC1CCc2c(N3CCC(O)CC3)c(F)cc3c(=O)c(C(=O)O)cn1c23.N=C(N)NCCC[C@@H](N)C(=O)O (racemic) [Example 9, RS-(±)-9-Fluoro-6,7-dihydro-8-(4-hydroxypiperidin-1-yl)-5-methyl-1-oxo-1H,5H-benzo[i,j]quinolizine-2-carboxylic Acid D-Arginine Salt]",antimicrobial activity,antimicrobial activity,have antimicrobial activity
"CC1CCc2c(N3CCC(O)CC3)c(F)cc3c(=O)c(C(=O)O)cn1c23.N=C(N)NCCCC(N)C(=O)O (racemic) [R, S-9-fluoro-6,7-dihydro-8-(4-hydroxypiperidin-1-yl)-5-methyl-1-oxo-1H,5H-benzo[i,j]-quinolizine-2-carboxylic acid DL-arginine salt]",antimicrobial activity,antimicrobial activity,have antimicrobial activity
"C[C@@H]1CCc2c(N3CCC(O)CC3)c(F)cc3c(=O)c(C(=O)O)cn1c23.N=C(N)NCCCC(N)C(=O)O (stereo in doubt) [R-(+)-9-fluoro-6,7-dihydro-8-(4-hydroxypiperidin-1-yl)-5-methyl-1-oxo-1H,5H-benzo[i,j]-quinolizine-2-carboxylic acid DL-arginine salt]",antimicrobial activity,antimicrobial activity,have antimicrobial activity
"C[C@H]1CCc2c(N3CCC(O)CC3)c(F)cc3c(=O)c(C(=O)O)cn1c23.N=C(N)NCCCC(N)C(=O)O (stereo in doubt) [S-(−)-9-fluoro-6,7-dihydro-8-(4-hydroxypiperidin-1-yl)-5-methyl-1-oxo-1H,5H-benzo[i,j]-quinolizine-2-carboxylic acid DL-arginine salt]",antimicrobial activity,antimicrobial activity,have antimicrobial activity
"C[C@H]1CCc2c(N3CCC(O)CC3)c(F)cc3c(=O)c(C(=O)O)cn1c23 [Example 1, S-(−)-9-Fluoro-6,7-dihydro-8-(4-hydroxypiperidin-1-yl)-5-methyl-1-oxo-1H,5H-benzo[i,j]quinolizine-2-carboxylic Acid L-Arginine Salt Hydrate]",toxicity,rodents,less toxic in rodents than the alkali salt forms
same,cidal effect,[1],unusual superior cidal effect
same,propensity to cause phlebitis,rats,lower propensity to cause phlebitis than the sodium and potassium salts
same,cidal action,[2],superior cidal action
same,antibacterial minimum inhibitory concentration (MIC) values compared with the free acid,[3],same antibacterial minimum inhibitory concentration (MIC) values as the free active ingredient
same,retention of potency at acidic pH,[3]; acidic pH of 5.5,unusual ability to retain potency
same,Mean mass diameter,[4],32.92 μm and 24.22 μm and 34.51 μm and 39.07 μm
same,Mean mass diameter,"[4]; listed as S-(−)-9-fluoro-6,7-dihydro-8-(4-hydroxypiperidin-1-yl)-5-methyl-1-oxo-1H,5H-benz",less than or equal to 40 μm
same,"Mean mass diameter, mean value",[4]; mean of four samples of Table 1,32.68 μm
same,bioavailability,[5],good bioavailability
same,eradication efficacy,Staphylococci,scores over the standard drugs
same,dissolution rate,dissolution rate,acceptable dissolution rate
same,effectiveness in treating resistant mutants,resistant mutants,effective
same,bulk density (tapped),"[6]; 25 gm/tapped volume, tapped 150 times",0.64 g/mL
same,bulk density (untapped),[6]; 25 gm/untapped volume,0.57 g/mL
same,effectiveness in treating respiratory pathogens,respiratory pathogens,effective
same,activity against resistant Staphylococcus aureus,[7],potent activity
same,hygroscopicity,[8],to a certain degree hygroscopic
same,moisture absorption compared with the sodium salt,[8]; at specified humidity levels,less prone than the sodium salt to absorb moisture
"C[C@H]1CCc2c(N3CCC(O)CC3)c(F)cc3c(=O)c(C(=O)O)cn1c23.N=C(N)NCCC[C@@H](N)C(=O)O [Example 5, S-(−)-9-Fluoro-6,7-dihydro-8-(4-hydroxypiperidin-1-yl)-5-methyl-1-oxo-1H,5H-benzo[i,j]quinolizine-2-carboxylic Acid D-Arginine Salt]",antimicrobial activity,antimicrobial activity,have antimicrobial activity
"C[C@@H]1CCc2c(N3CCC(O)CC3)c(F)cc3c(=O)c(C(=O)O)cn1c23.N=C(N)NCCC[C@H](N)C(=O)O [Example 6, R-(+)-9-Fluoro-6,7-dihydro-8-(4-hydroxypiperidin-1-yl)-5-methyl-1-oxo-1H,5H-benzo[i,j]quinolizine-2-carboxylic Acid L-Arginine Salt]",antimicrobial activity,antimicrobial activity,have antimicrobial activity
"C[C@@H]1CCc2c(N3CCC(O)CC3)c(F)cc3c(=O)c(C(=O)O)cn1c23.N=C(N)NCCC[C@@H](N)C(=O)O [Example 7, R-(+)-9-Fluoro-6,7-dihydro-8-(4-hydroxypiperidin-1-yl)-5-methyl-1-oxo-1H,5H-benzo[i,j]quinolizine-2-carboxylic Acid D-Arginine Salt]",antimicrobial activity,antimicrobial activity,have antimicrobial activity
"S-(−)-9-fluoro-6,7-dihydro-8-(4-hydroxypiperidin-1-yl)-5-methyl-1-oxo-1H,5H-benzo[i,j]quinolizine-2-carboxylic acid [reference compound]",antimicrobial activity compared with the R-(+)- and RS- acids,antimicrobial activity,more potent antimicrobial activity
"S-(−)-9-fluoro-6,7-dihydro-8-(4-hydroxypiperidin-1-yl)-5-methyl-1-oxo-1H,5H-benzo[i,j]quinolizine-2-carboxylic acid, L-arginine salt 0.25 hydrate [reference compound]",hygroscopicity,[8]; [9],highly hygroscopic and turn into syrups
"S-(−)-9-fluoro-6,7-dihydro-8-(4-hydroxypiperin-1-yl)-5-methyl-1-oxo-1H,5H-benzo[i,j]quinolizine-2-carboxylic acid, L-arginine salt, 0.75 hydrate [reference compound]",hygroscopicity,[8]; [9],highly hygroscopic and turn into syrups
